Assay results published in PMC9267968, “Continued Structural Exploration of Sulfocoumarin as Selective Inhibitor of Tumor-Associated Human Carbonic Anhydrases IX and XII” (Molecules, 2022).
Read-outs that look alike come from different tables or passages of the source.

Tests used:
hCA I = molecular target: T1, hCA I (Homo sapiens, UniProt P00915); assay: stopped-flow CO2 hydrase assay, hCA I inhibition; format: biochemical; settings: 6 h incubation of enzyme and inhibitor; mean from 3 different assays, errors 5-10%; read-out: KI (nM) CA I
T1 construct: made in house
Experimental: (§1) For this reason, we herein report a 6 h incubation time instead.
(§2) An Applied Photophysics stopped-flow instrument was used for assaying the CA catalyzed CO2 hydration activity. […] The uncatalyzed rates were determined in the same manner and subtracted from the total observed rates. Stock solutions of inhibitor (0.1 mM) were prepared in distilled–deionized water and dilutions up to 0.01 nM were done thereafter with the assay buffer. Inhibitor and enzyme solutions were preincubated together for 6h at room temperature prior to assay, in order to allow for the formation of the E-I complex. The inhibition constants were obtained by non-linear least-squares methods using PRISM 3 and the Cheng–Prusoff equation and represent the mean from at least three different determinations. […] All CA isoforms were recombinant ones obtained in-house.

hCA II = molecular target: T2, hCA II (Homo sapiens, UniProt P00918); assay: stopped-flow CO2 hydrase assay, hCA II inhibition; format: biochemical; settings: 6 h incubation of enzyme and inhibitor; mean from 3 different assays, errors 5-10%; read-out: KI (nM) CA II
T2 construct: made in house
Experimental: as §1, §2

hCA IX = molecular target: T3, hCA IX (Homo sapiens, UniProt Q16790); assay: stopped-flow CO2 hydrase assay, hCA IX inhibition; format: biochemical; settings: 6 h incubation of enzyme and inhibitor; mean from 3 different assays, errors 5-10%; read-out: KI (nM) CA IX
T3 construct: made in house
Experimental: as §1, §2

hCA XII = molecular target: T4, hCA XII (Homo sapiens, UniProt O43570); assay: biochemical
T4 construct: made in house
Experimental: as §1, §2

[1] = 6 h incubation of enzyme and inhibitor, mean from 3 different assays, errors 5-10%, read-out: KI (nM) CA XII

T1 sequence (P00915 whole entry): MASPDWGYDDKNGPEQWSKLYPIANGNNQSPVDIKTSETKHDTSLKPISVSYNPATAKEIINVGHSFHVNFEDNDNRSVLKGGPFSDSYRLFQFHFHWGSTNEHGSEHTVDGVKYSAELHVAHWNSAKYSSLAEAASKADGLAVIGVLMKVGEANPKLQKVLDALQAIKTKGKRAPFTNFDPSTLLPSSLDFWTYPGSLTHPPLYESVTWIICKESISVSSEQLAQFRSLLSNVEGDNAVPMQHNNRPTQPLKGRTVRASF
T4 sequence (O43570 25-354): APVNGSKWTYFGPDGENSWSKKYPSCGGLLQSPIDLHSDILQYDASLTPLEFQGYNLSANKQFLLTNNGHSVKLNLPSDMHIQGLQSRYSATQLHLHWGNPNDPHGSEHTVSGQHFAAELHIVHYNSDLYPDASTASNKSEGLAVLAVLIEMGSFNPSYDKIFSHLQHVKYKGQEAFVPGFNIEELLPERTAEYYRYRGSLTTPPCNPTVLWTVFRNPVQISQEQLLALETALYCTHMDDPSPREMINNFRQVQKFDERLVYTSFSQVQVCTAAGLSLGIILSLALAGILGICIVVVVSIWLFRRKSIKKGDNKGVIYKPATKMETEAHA

Compound | melting point [°C] | Ki (hCA I) [nM] | Ki (hCA II) [nM] | Ki (hCA IX) [nM] | Ki (hCA XII; [1]) [nM] | Ki (hCA XII) [nM]
COc1ccc2c(c1)OS(=O)(=O)c1ccccc1-2 [Compound 25, 3-methoxydibenzo[c,e][1,2]oxathiine 6,6-dioxide] | 180 to 183 | > 100000 | > 100000 | 1290 | 966 | 
O=S1(=O)Oc2cc(O)ccc2-c2ccccc21 [Compound 26, 3-Hydroxydibenzo[c,e][1,2]oxathiine 6,6-dioxide] | 181 to 182 | 42600 | 9000 | 559 | 414 | 
O=S1(=O)Oc2cc(OCc3ccccc3)ccc2-c2ccccc21 [Compound 27, 3-(benzyloxy)dibenzo[c,e][1,2]oxathiine 6,6-dioxide] | 232 to 235 | > 100000 | > 100000 | 681 | 911 | 
O=S1(=O)Oc2cc(OCc3ccc(F)cc3)ccc2-c2ccccc21 [Compound 28, 3-((4-fluorobenzyl)oxy)dibenzo[c,e][1,2]oxathiine 6,6-dioxide] | 268 to 269 | > 100000 | > 100000 | 755 | 654 | 
O=S1(=O)Oc2cc(OCc3cccc(F)c3)ccc2-c2ccccc21 [Compound 29, 3-((3-fluorobenzyl)oxy)dibenzo[c,e][1,2]oxathiine 6,6-dioxide] | 249 to 252 | > 100000 | > 100000 | 615 | 566 | 
O=[N+]([O-])c1ccc(COc2ccc3c(c2)OS(=O)(=O)c2ccccc2-3)cc1 [Compound 30, 3-((4-nitrobenzyl)oxy)dibenzo[c,e][1,2]oxathiine 6,6-dioxide] | 264 to 266 | > 100000 | > 100000 | 965 | 1060 | 
O=[N+]([O-])c1cccc(COc2ccc3c(c2)OS(=O)(=O)c2ccccc2-3)c1 [Compound 31, 3-((3-nitrobenzyl)oxy)dibenzo[c,e][1,2]oxathiine 6,6-dioxide] | 248 to 251 | > 100000 | > 100000 | 898 | 1370 | 
CCOC(=O)C1=Cc2ccccc2OS1(=O)=O [Compound 34, ethyl benzo[e][1,2]oxathiine-3-carboxylate 2,2-dioxide] | 111 to 113 | > 100000 | > 100000 | 1630 |  | 2590
CCOC(=O)C1=Cc2ccc(OC)cc2OS1(=O)=O [Compound 35, ethyl 7-methoxybenzo[e][1,2]oxathiine-3-carboxylate 2,2-dioxide] | 167 to 169 | > 100000 | > 100000 | 1080 |  | 1530
O=C(O)C1=Cc2ccccc2OS1(=O)=O [Compound 36, benzo[e][1,2]oxathiine-3-carboxylic acid 2,2-dioxide] | 105 to 107 | 4620 | 996 | 500 |  | 564
COc1ccc2c(c1)OS(=O)(=O)C(C(=O)O)=C2 [Compound 37, 7-methoxybenzo[e][1,2]oxathiine-3-carboxylic acid 2,2-dioxide] | 150 to 151 | 7140 | 728 | 854 |  | 408
O=C(Nc1ccccc1)C1=Cc2ccccc2OS1(=O)=O [Compound 38, N-phenylbenzo[e][1,2]oxathiine-3-carboxamide 2,2-dioxide] | 192 to 195 | > 100000 | > 100000 | 3290 |  | 2300
O=C(Nc1ccc(Br)cc1)C1=Cc2ccccc2OS1(=O)=O [Compound 39, N-(4-bromophenyl)benzo[e][1,2]oxathiine-3-carboxamide 2,2-dioxide] | 249 to 252 | > 100000 | > 100000 | 34300 |  | 59000
O=C(Nc1cccc(Br)c1)C1=Cc2ccccc2OS1(=O)=O [Compound 40, N-(3-bromophenyl)benzo[e][1,2]oxathiine-3-carboxamide 2,2-dioxide] | 228 to 229 | > 100000 | > 100000 | 40800 |  | 78300
COc1ccc(NC(=O)C2=Cc3ccccc3OS2(=O)=O)cc1 [Compound 41, N-(4-methoxyphenyl)benzo[e][1,2]oxathiine-3-carboxamide 2,2-dioxide] | 231 to 233 | > 100000 | > 100000 | 8230 |  | 8550
COc1cccc(NC(=O)C2=Cc3ccccc3OS2(=O)=O)c1 [Compound 42, N-(3-methoxyphenyl)benzo[e][1,2]oxathiine-3-carboxamide 2,2-dioxide] | 219 to 221 | > 100000 | > 100000 | 5420 |  | 3380
COc1ccc2c(c1)OS(=O)(=O)C(C(=O)Nc1ccccc1)=C2 [Compound 43, 7-methoxy-N-phenylbenzo[e][1,2]oxathiine-3-carboxamide 2,2-dioxide] | 241 to 244 | > 100000 | > 100000 | 2430 |  | 1590
COc1ccc2c(c1)OS(=O)(=O)C(C(=O)Nc1ccc(Br)cc1)=C2 [Compound 44, N-(4-bromophenyl)-7methoxybenzo[e][1,2]oxathiine-3-carboxamide 2,2-dioxide] | 272 to 275 | > 100000 | > 100000 | 51500 |  | 42500
COc1ccc2c(c1)OS(=O)(=O)C(C(=O)Nc1cccc(Br)c1)=C2 [Compound 45, N-(3-bromophenyl)-7-methoxybenzo[e][1,2]oxathiine-3-carboxamide 2,2-dioxide] | 218 to 220 | > 100000 | > 100000 | 64400 |  | 76500
COc1ccc(NC(=O)C2=Cc3ccc(OC)cc3OS2(=O)=O)cc1 [Compound 46, N-(4-methoxyphenyl)-7-methoxybenzo[e][1,2]oxathiine-3-carboxamide 2,2-dioxide] | 238 to 240 | > 100000 | > 100000 | 4370 |  | 6550
COc1cccc(NC(=O)C2=Cc3ccc(OC)cc3OS2(=O)=O)c1 [Compound 47, N-(3-methoxyphenyl)-7-methoxybenzo[e][1,2]oxathiine-3-carboxamide 2,2-dioxide] | 222 to 225 | > 100000 | > 100000 | 6560 |  | 2470
